# Literature values as cited in patent publication US20140056862A1, “NUTRITIONAL COMPOSITIONS HAVING ALPHA-HICA AND ALPHA-KETOGLUTARATE” (Nestec S.A., priority 2011, published 2014).
# System: intestinal mammalian target of rapamycin (mTOR); intestinal villi and crypts
# Conditions: piglet stressed with LPS
compound,measurement,setting,value
"O=C(O)CCC(=O)C(=O)O [AKG, α-ketoglutarate]",crypt depth,,reduced
same,villous height,,increased
same,phosphorylation of intestinal mammalian target of rapamycin (mTOR),leading to increased protein synthesis and anti-inflammatory responses,increased
